Usually viability stands for a read-out of living cells in per cent, often relative to untreated cells.

SMILES strings stand for the structures.

A short description of this data set: in vitro. To be noted: human, hela cells, % viability.
For the compound `Cc1cc(C)c(S(=O)(=O)Nc2ccccc2C(=O)NCc2ccco2)c(C)c1` [CBK266382], the viability at 28.5 h, 10 µM came to 98.2%. Next, `N#C/C(=C/c1ccc(-c2ccc(S(N)(=O)=O)cc2)o1)S(=O)(=O)c1ccc(Cl)cc1` [CBK266383]: 110%; `Cc1ccc2nc(/C(C#N)=C/c3ccc(-c4ccc(S(N)(=O)=O)cc4)o3)[nH]c2c1` [CBK266386]: 94%; `CC(C)(CSc1nnc(Nc2ccccc2)s1)NS(=O)(=O)c1ccc(Cl)cc1` [CBK266388]: 108%. In the case of `CN1CCC(OC(=O)COc2ccc(Cl)cc2Cl)CC1` [CBK266389C] it was 91%. In the case of `O=C(CN1C(=O)c2ccccc2S1(=O)=O)Nc1ccccc1-c1ccccc1` [CBK266390] it was 102%; in that of `O=S(=O)(NC1CCCCC1n1cc(-c2ccccc2)nn1)c1ccc(Cl)cc1` (centres unmarked) [CBK266391], 99%.

`COc1ccc(Cl)cc1NC(=O)CN(c1cc([N+](=O)[O-])ccc1C)S(C)(=O)=O` [CBK266394]: the viability at 28.5 h, 10 µM is 114%. With `NC(=O)c1ccccc1NC(=O)CCSc1ccc([N+](=O)[O-])cc1Cl` [CBK266396], the viability at 28.5 h, 10 µM worked out at 80.1%. In the case of `C/C=C/c1ccc(OCCNC2CCCC2)c(OC)c1` [CBK266399G] it was 93.9%; in that of `Clc1ccc(SCCCSc2ncccn2)cc1` [CBK266400], 96.8%. Next, `Cc1ccc2c(c1)C(c1c[nH]c3ccccc13)(c1c[nH]c3ccccc13)C(=O)N2C` [CBK266401]: 103%. In the case of `Cn1cc(C(c2ccc(OCC(=O)O)cc2)c2cn(C)c3ccccc23)c2ccccc21` [CBK266403] it was 94.5%; in that of `CC(C)(c1ccccc1)c1ccc(OCCCCn2cncn2)cc1` [CBK266405], 89.5%.

Turning to `O=C(CCSc1ccc([N+](=O)[O-])cc1Cl)Nc1ccc(Br)c2cccnc12` [CBK266407], the viability at 28.5 h, 10 µM was 86.7%. In the case of `Cc1cccc(NC(c2ccc(C)s2)c2ccc3ccc(C)nc3c2O)n1` (centres unmarked) [CBK266408] it was 94.2%; in that of `CCOC(=O)c1c(NC(=O)CSc2n[nH]c(N)n2)sc(C)c1C` [CBK266412], 94.4%; in that of `CCN(CC)CCN1C(=O)C(O)=C(C(=O)c2cc3ccccc3o2)C1c1ccccn1` (centres unmarked) [CBK266413], 86.1%. Next, `COc1cccc2cc(C(=O)C3=C(O)C(=O)N(CCN4CCOCC4)C3c3ccc(F)cc3)oc12` (centres unmarked) [CBK266414]: 93.3%. In the case of `Cc1cc(Cl)c(S(=O)(=O)Nc2ccc(I)cc2)cc1OCC(N)=O` [CBK266418], the viability at 28.5 h, 10 µM amounted to 105%. Take `OCCNCc1cc(Br)ccc1OCc1ccc(F)cc1` [CBK266421C]: the viability at 28.5 h, 10 µM stood at 96%. As to `O=C(O)CCN1C(=O)c2ccc(NC(=O)CCc3ccccc3)cc2C1=O` [CBK266422], the viability at 28.5 h, 10 µM was 95.2%. For the compound `Cc1ccc(OCc2nc(C#N)c(NCCCN3CCOCC3)o2)cc1` [CBK266423], the viability at 28.5 h, 10 µM turned out to be 112%. Next, `Cc1cc(C)c(S(=O)(=O)N2CCC(C(=O)Nc3ccc(C(N)=O)cc3)CC2)c(C)c1` [CBK266424]: 91.7%; `Cc1ccc(-c2noc(CN3CCN(C(c4ccccc4)c4ccccc4)CC3)n2)cc1` [CBK266425]: 96.5%; `Cc1ccc(OCC(=O)Nc2ncc(C(F)(F)F)cc2Cl)c(Br)c1` [CBK266426]: 95.1%.

As for `Brc1ccc(-n2cc(-c3ccccc3)c3c(NCc4ccccn4)ncnc32)cc1` [CBK266427], the viability at 28.5 h, 10 µM stood at 104%. `COc1cc(F)ccc1S(=O)(=O)NC1CC(C)(C)NC(C)(C)C1` [CBK266428]: the viability at 28.5 h, 10 µM was 112%. Consider `COc1cc(NC(=O)C(C)Oc2ccc(Cl)cc2C)c(C(=O)O)cc1OC` (centres unmarked) [CBK266430], for which the viability at 28.5 h, 10 µM is 86%.

As for `COc1cc(CNC(C)(C)CO)ccc1OCc1ccc(Cl)cc1` [CBK266433C], the viability at 28.5 h, 10 µM was determined as 92%.

As to `CC(C)(C)NS(=O)(=O)c1ccc(OCC(=O)NCc2ccncc2)cc1` [CBK266434], the viability at 28.5 h, 10 µM turned out to be 97.3%. Regarding `Cc1cc(I)cnc1NC(=O)CSc1ccc(Cl)cc1` [CBK266438], the viability at 28.5 h, 10 µM stood at 94.3%. For the compound `CCCN1C(=O)c2ccc(C(=O)Nc3cc(C(=O)O)cc(C(=O)O)c3)cc2C1=O` [CBK266441], the viability at 28.5 h, 10 µM worked out at 97%.

As to `Cn1nnc(NC(=O)COc2ccc(C3CCCCC3)cc2)n1` [CBK266442], the viability at 28.5 h, 10 µM turned out to be 95.9%.

Take `Cc1ccccc1NS(=O)(=O)c1cc(OCC(N)=O)c(C)cc1Cl` [CBK266443]: the viability at 28.5 h, 10 µM was 85.9%. Next, `O=C(CN(c1ccc2c(c1)OCCO2)S(=O)(=O)c1ccccc1)N1CCN(Cc2ccccc2)CC1` [CBK266444]: 113%; `Cc1ccc(S(=O)(=O)N2CCN(c3nc(NC(C)c4ccccc4)c4ccccc4n3)CC2)cc1` (centres unmarked) [CBK266448]: 106%. In the case of `CCOC(=O)c1cnc(SCc2cccc([N+](=O)[O-])c2)nc1N` [CBK266449], the viability at 28.5 h, 10 µM is 95%.

For `CS(=O)(=O)N1CCN(c2ccc(NC(=O)COc3ccc4ccccc4c3)cc2)CC1` [CBK266450], the viability at 28.5 h, 10 µM was 96.8%. In the case of `Cc1cc(Cl)c(S(=O)(=O)N2CC(C)OC(C)C2)cc1OCC(N)=O` (centres unmarked) [CBK266452] it was 109%; in that of `O=C(CSc1nc2[nH]ncc2c(=O)n1-c1ccccc1)Nc1ccc(F)c(Cl)c1` [CBK266453], 97.6%; in that of `O=C(CC1NCCNC1=O)Nc1cccc(Cl)c1` (centres unmarked) [CBK266454], 105%. Next, `O=C(Nc1cc(Cl)ccc1C(=O)O)c1ccc2c(c1)C(=O)N(Cc1cccnc1)C2=O` [CBK266455]: 89.9%. For the compound `Cc1cc(NS(=O)(=O)c2cc(OCC(N)=O)c(C)cc2Cl)no1` [CBK266456], the viability at 28.5 h, 10 µM was found to be 103%. Next, `Cc1ccc(-c2noc(CN3CCN(c4ccccn4)CC3)n2)cc1` [CBK266457]: 95.7%; `COCCNS(=O)(=O)c1cc(OCC(N)=O)c(C)cc1Cl` [CBK266461]: 99.3%; `Cc1cc(N2C(=O)c3ccc(Oc4ccc5c(c4)C(=O)N(c4cc(C)on4)C5=O)cc3C2=O)no1` [CBK266463]: 85.8%. In the case of `Cc1ccc(Nc2nc(N)nc(CSc3nnc(-c4ccncc4)o3)n2)cc1` [CBK266464] it was 97.7%. Next, `CCN(CC)CCN1C(=O)C(O)=C(C(=O)c2ccc3c(c2)OCO3)C1c1cccnc1` (centres unmarked) [CBK266465]: 99.6%; `Cc1ccc(Nc2nc(N)nc(CSc3nccn3C)n2)cc1` [CBK266468]: 113%. As to `O=C(CSc1nc2ccccc2c(=O)[nH]1)NCCO` [CBK266469], the viability at 28.5 h, 10 µM was determined as 96.2%.

On to `O=C(CSc1ncnc2scc(-c3ccc(Cl)cc3)c12)Nc1nsc(-c2ccccc2)n1` [CBK266473], for which the viability at 28.5 h, 10 µM was 96.6%. Next, `COc1ccc(C(=O)C2=C(O)C(=O)N(CCN(C)C)C2c2cccc([N+](=O)[O-])c2)cc1Cl` (centres unmarked) [CBK266474]: 102%; `NS(=O)(=O)c1ccc(CCNc2ncnc3c2c(-c2ccccc2)cn3-c2ccc(F)cc2)cc1` [CBK266478]: 92%. Consider `COc1ccc(S(=O)(=O)NCCN2CCOCC2)c(C)c1C` [CBK266479], for which the viability at 28.5 h, 10 µM was 99.4%. For the compound `Cc1cc(C)nc(NC2=NCCN2C(=S)Nc2ccccc2)n1` [CBK266481], the viability at 28.5 h, 10 µM amounted to 95.7%. In the case of `Cc1ccc(OCc2nnc(SCC(=O)c3ccc(Br)cc3)n2N)cc1` [CBK266482] it was 99.5%. Next, `O=C(CSc1ncnc2sc3c(c12)CCC3)Nc1nsc(-c2ccc(Cl)cc2)n1` [CBK266484]: 118%; `O=C(O)c1ccc(NCc2ccccc2OCc2ccc(F)cc2)cc1` [CBK266487]: 101%. In the case of `COc1ccc(NC(=O)CC2NC3CCCCC3NC2=O)cc1` (centres unmarked) [CBK266488] it was 89.7%; in that of `O=C(O)C1CCCCC1c1nnc(S)[nH]1` (centres unmarked) [CBK266490], 96.4%; in that of `COc1ccc(CNS(=O)(=O)c2cc(OCC(N)=O)c(C)cc2Cl)cc1` [CBK266495], 110%. Take `CN(C)S(=O)(=O)N1CCN(c2ccc([N+](=O)[O-])c(NCCc3ccccc3)c2)CC1` [CBK266498]: the viability at 28.5 h, 10 µM was 102%. In the case of `CCOC(=O)c1c(NC(=O)CSc2ccc(F)cc2)sc2c1CCCC2` [CBK266506] it was 95.9%; in that of `Cc1cc(C)nc(N/C(=N/C(=O)CCN2C(=O)c3ccccc3C2=O)Nc2cccc(Cl)c2)n1` [CBK266507], 97%; in that of `CC(C)(C)c1cc(CN)c(C(=O)O)o1` [CBK266510C], 94.3%.

`Cc1nc2ccc(NC(=O)N3CCC(c4ccccc4)C3)cc2s1` (centres unmarked) [CBK266512]: the viability at 28.5 h, 10 µM came out at 98.8%.

As for `Cc1ccc(S(=O)(=O)NC(C)C(=O)NCc2ccco2)cc1` (centres unmarked) [CBK266514], the viability at 28.5 h, 10 µM turned out to be 109%. As to `Cc1c(C(=O)C2=C(O)C(=O)N(CCCN(C)C)C2c2ccccn2)cnn1-c1ccccc1` (centres unmarked) [CBK266516], the viability at 28.5 h, 10 µM came out at 100%. Next, `Cc1nnc(SCC(=O)NC(C)(C)C)n1NCc1cccc(Br)c1` [CBK266517]: 101%; `COc1cc(C)c(Cl)c(C)c1S(=O)(=O)NCc1ccc2c(c1)OCO2` [CBK266518]: 96%. Next, `COc1ccc(S(=O)(=O)NCCCN2CCOCC2)c(C)c1C` [CBK266519]: 110%. As for `Cc1nnc(SCC(=O)Nc2nsc(-c3ccc(Cl)cc3)n2)s1` [CBK266525], the viability at 28.5 h, 10 µM came out at 91.5%. For the compound `CCS(=O)(=O)n1nc(-c2ccc(OC)cc2)nc1SC` [CBK266526], the viability at 28.5 h, 10 µM is 103%. In the case of `O=C(/C=C/c1cn(-c2ccccc2)nc1-c1cc2ccccc2oc1=O)NCc1ccccc1` [CBK266530] it was 100%; in that of `O=C(CSc1ccc(Cl)cc1)Nc1cc(C(=O)O)cc(C(=O)O)c1` [CBK266531], 98.8%. Next, `COc1ccccc1NC(=O)c1ccc(-c2nnc(-c3ccccc3)o2)cc1` [CBK266533]: 107%.

Values taken from paper PMC12040169 (PLOS Biology, 2025).
